From patent US20220184172A1, “AMPK/CASPASE-6 AXIS CONTROLS LIVER DAMAGE IN NONALCOHOLIC STEATOHEPATITIS” (The Regents of the University of California, priority 2019, published 2022)

System: CD-HFD fed C57BL/6J mice
Assay: AMPK agonist A-769662 in CD-HFD-induced NASH, C57BL/6J mice
Assay type: in vivo
Procedure: FIGS. 4A-4L. Both an AMPK agonist and a caspase-6 inhibitor therapeutically improve liver damage. FIG. 4A-4I. C57BL/6J mice were fed CD-HFD for 6 weeks, followed by intraperitoneally injection of 25 mg/kg A-769662 or vehicle daily for 2 weeks while continuous CD-HFD. FIG. 4A. Liver sections stained as indicated: TUNEL and DAPI. In the merged image section, the different stains correspond to the grayscale shades as indicated in the single stained images to the left. Scale bar=50 μm. FIG. 4B. Quantification of TUNEL-positive nuclei per field in FIG. 4A. n=7. FIG. 4C-4E. Serum ALT (FIG. 4C), AST (FIG. 4D) and ALP (FIG. 4E). n=7. FIG. 4F. H&E and Sirius red staining of liver sections as indicated. Scale bar=100 μm. FIG. 4G. Quantification of liver fibrosis area (% of total area) in FIG. 4F. n=7. FIG. 4H. Liver hydroxyproline. n=8. FIG. 4I. Expression of Tgfb, Timp1, Col1a1, Col3a1, Pdgfa, Pdgfb, Pdgfra and Ddr2 in livers. n=8. *, P<0.05, Student's unpaired t test. FIGS. 4J-4L. Flox and LAKO mice were fed CD-HFD for 6 weeks, followed by intraperitoneally injection of 5 mg/kg VEID (SEQ ID NO: 71) or vehicle every other day for 2 weeks while continuous feeding. FIG. 4J. Liver sections stained as indicated (TUNEL and DAPI); in the merged image sections, the different stains correspond to the grayscale shades as indicated in the single stained images to the left. Scale bar=50 μm. FIG. 4K. Quantification of TUNEL-positive nuclei per field in FIG. 4J. n=5-6. FIG. 4L. Serum ALT. n=5-6. Mean±SEM. *, P<0.05, two-way ANOVA. FIG. 4 discloses “VEID” as SEQ ID NO: 71.
FIGS. 5A-5K. AMPK phosphorylates caspase-6 to inhibit its cleavage and activation. FIG. 5A. Primary hepatocytes were pretreated 40 μM A-769662 for 1 hr, then treated 30 μg/ml CHX and 50 ng/ml TNFα for 2 hrs. IB analysis of cell lysates. n=3. Mean±SD. *, P<0.05, two-way ANOVA. FIG. 5B. Primary hepatocytes were pretreated 40 μM A-769662 for 1 hr, then treated 250 μM BSA-conjugated palmitic acid (PA) for 2 hrs. Cell lysates were subject to caspase-6 activity assay. Mean±SD. *, P<0.05. FIG. 5C. Caspase-6 Ser^257 locates within AMPK substrate motif. FIG. 5C. discloses SEQ ID NOS 57-63, respectively, in order of appearance. FIG. 5D. In vitro kinase assay using recombinant caspase-6, and recombinant AMPKα1β1γ1 or AMPKα2β1γ1 active kinase. FIG. 5E. Alignment of caspase-6 sequence. FIG. 5E. discloses SEQ ID NOS 64-67, respectively, in order of appearance. FIG. 5F. HEK293T cells overexpressing caspase-6-myc WT, S^257A, S^257D or S^257E mutant were treated with 10 μg/ml CHX and 25 ng/ml TNFα for 2 hrs. IB analysis of cell lysates. FIGS. 5G-5J. C57BL/6J mice were fed CD-HFD for 6 weeks, followed by intraperitoneally injection of 25 mg/kg A-769662 or vehicle daily for 2 weeks while continuous CD-HI-D. Mice were sacrificed 6 hrs after last injection. FIG. 5G. IB analysis of liver lysates. n=5. FIG. 5H. Liver lysates were subject to caspase-6 activity assay. n=7. FIG. 5I. Liver sections stained as indicated therein (aCasp6 and DAPI); in the merged image sections, the different stains correspond to the grayscale shades as indicated in the single stained images to the left. Scale bar=50 μm. FIG. 5J. Quantification of aCasp6 staining per field in FIG. 5I. n=7. Mean±SEM. *, P<0.05, Student's unpaired t test. FIG. 5K. IB analysis of liver lysates from C57BL/6J mice fed ND or CD-HFD. Note: AMPK and pAMPK blots are the same as in FIG. 1B.
FIGS. 13A-13I. A-769662 improves liver damage through AMPK activation in hepatocytes in NASH. C57BL/6J mice were fed with CD-HFD for 8 weeks. After 6 weeks of CD-HFD feeding, mice were intraperitoneally injected with 25 mg/kg A-769662 or vehicle daily for 2 weeks along with continuous CD-HFD feeding. FIG. 13A. Schematic diagram of experimental design. FIG. 13B-13C. Body weight (FIG. 13B) and liver weight (FIG. 13C) of indicated mice. n=7. FIG. 13D. Measurement of liver triglyceride (TG) of indicated mice. n=7. FIG. 13E. […]

[1] = 25 mg/kg i.p. daily for 2 weeks, CD-HFD
[2] = 25 mg/kg i.p. daily for 2 weeks, CD-HFD, sacrificed 6 hrs after last injection
[3] = 25 mg/kg i.p. once per day for two weeks after 6 weeks CD-HFD

SMILES: N#Cc1c(O)c2c(-c3ccc(-c4ccccc4O)cc3)csc2[nH]c1=O [A-769662]
- hepatic fibrosis (Sirius red fibrosis area, liver hydroxyproline) (25 mg/kg i.p. daily for 2 weeks after 6 weeks CD-HFD): attenuated
- expression of Col1a1 in liver [1]: significantly reduced
- expression of Col3a1 in liver [1]: significantly reduced
- expression of Ddr2 in liver [1]: without effect
- expression of Pdgfa in liver [1]: significantly reduced
- expression of Pdgfb in liver [1]: significantly reduced
- expression of Pdgfra in liver [1]: significantly reduced
- expression of Tgfb in liver [1]: without effect
- expression of inflammation marker gene Adgre1 in liver [1]: without effect
- expression of inflammation marker gene Ccl2 in liver [1]: without effect
- aCasp6 (active caspase-6) staining of liver sections (25 mg/kg i.p. daily for 2 weeks, CD-HFD-induced NASH): decreased
- caspase-6 activity in vivo (liver lysates) [2]: decreased
- procaspase-6 Ser257 phosphorylation (IB of liver lysates) [2]: significantly increased
- hepatic TG [3]: no effect
- liver damage (serum ALT, AST, ALP) [3]: improved
- number of apoptotic cells (TUNEL-positive nuclei per field) [3]: significantly reduced
